Results from BindingDB's records for doi:10.1016/s0960-894x(99)00360-1 (Parke-Davis Pharmaceutical Research, 1999).

Target: T1, Dimer of Gag-Pol polyprotein [489-587] (Human immunodeficiency virus 1, UniProt P12497)
T1 construct: 489-587
Experiment: Protease Inhibition Assay
Conditions: pH 6.2; 37 °C
Protocol: For determination of IC50 values, HIV-1 protease was added to assay buffer containing inhibitor and the substrate (H-His-Lys-Ala-Arg-Val-Leu- (p-NO2) Phe-Glu-Ala-norleucine-Ser-NH2). The Leu- (p-NO2) Phe bond of the substrate was cleaved by the enzyme, and the substrate and products were separated by reversed-phase HPLC. Absorbance was measured at 220 nm, peak areas were determined, and percentage conversion to product was calculated.

SMILES | IC50 [nM]
Cc1cc(SC2C(=O)CC(CCc3ccc(O)cc3)(C(C)C)OC2=O)c(C(C)(C)C)cc1OS(=O)(=O)N(C)C (stereo unspecified) [6-Alkyl-5,6-Dihydropyran-2-one 22] | 3.4
Cc1cc(SC2C(=O)CC(CCc3ccc(O)cc3)(C(C)C)OC2=O)c(C(C)(C)C)cc1OS(=O)(=O)N1CCN(C)CC1 (stereo unspecified) [5-tert-butyl-4-({4-hydroxy-6-[2-(4-hydroxyphenyl)ethyl]-2-oxo-6-(propan-2-yl)-5,6-dihydro-2H-pyran-3-yl}sulfanyl)-2-methylphenyl 4-methylpiperazine-1-sulfonate] | 3.1
CCNS(=O)(=O)Oc1cc(C(C)(C)C)c(SC2C(=O)CC(CCc3ccc(N)cc3)(C(C)C)OC2=O)cc1C (stereo unspecified) [4-({6-[2-(4-aminophenyl)ethyl]-4-hydroxy-2-oxo-6-(propan-2-yl)-5,6-dihydro-2H-pyran-3-yl}sulfanyl)-5-tert-butyl-2-methylphenyl N-ethylsulfamate] | 4.3
Cc1cc(SC2C(=O)CC(CCc3ccccc3)(C(C)C)OC2=O)c(C(C)(C)C)cc1OS(=O)(=O)N1CCN(C)CC1 (stereo unspecified) [5-tert-butyl-4-{[4-hydroxy-2-oxo-6-(2-phenylethyl)-6-(propan-2-yl)-5,6-dihydro-2H-pyran-3-yl]sulfanyl}-2-methylphenyl 4-methylpiperazine-1-sulfonate] | 3.9
CCNS(=O)(=O)Oc1cc(C(C)(C)C)c(SC2C(=O)CC(CCc3ccc(O)cc3)(C(C)C)OC2=O)cc1C (stereo unspecified) [6-Alkyl-5,6-Dihydropyran-2-one 20] | 4.9
CCNS(=O)(=O)Oc1cc(C(C)(C)C)c(SC2C(=O)CC(CCc3ccc(O)cc3)(c3ccccc3)OC2=O)cc1C (stereo unspecified) [5-tert-butyl-4-({4-hydroxy-6-[2-(4-hydroxyphenyl)ethyl]-2-oxo-6-phenyl-5,6-dihydro-2H-pyran-3-yl}sulfanyl)-2-methylphenyl N-ethylsulfamate] | 26
CCNS(=O)(=O)Oc1cc(C(C)(C)C)c(SC2C(=O)CC(C)(CCc3ccc(O)cc3)OC2=O)cc1C (stereo unspecified) [5-tert-butyl-4-({4-hydroxy-6-[2-(4-hydroxyphenyl)ethyl]-6-methyl-2-oxo-5,6-dihydro-2H-pyran-3-yl}sulfanyl)-2-methylphenyl N-ethylsulfamate] | 2.3
CCNS(=O)(=O)Oc1cc(C(C)(C)C)c(SC2C(=O)CC(CCc3ccccc3)(C(C)C)OC2=O)cc1C (stereo unspecified) | 8.9
Cc1cc(SC2C(=O)CC(C)(CCc3ccc(O)cc3)OC2=O)c(C(C)(C)C)cc1OS(N)(=O)=O (stereo unspecified) [[5-tert-butyl-4-({4-hydroxy-6-[2-(4-hydroxyphenyl)ethyl]-6-methyl-2-oxo-5,6-dihydro-2H-pyran-3-yl}sulfanyl)-2-methylphenyl] sulfamate] | 1.8
Cc1cc(SC2C(=O)CC(C)(CCc3ccc(O)cc3)OC2=O)c(C(C)(C)C)cc1O (stereo unspecified) [6-Alkyl-5,6-Dihydropyran-2-one 13] | 6.5
Cc1cc(SC2C(=O)CC(CCc3ccc(O)cc3)(C(C)C)OC2=O)c(C(C)(C)C)cc1OS(=O)(=O)N1CCOCC1 (stereo unspecified) [5-tert-butyl-4-({4-hydroxy-6-[2-(4-hydroxyphenyl)ethyl]-2-oxo-6-(propan-2-yl)-5,6-dihydro-2H-pyran-3-yl}sulfanyl)-2-methylphenyl morpholine-4-sulfonate] | 2.6
Cc1cc(SC2C(=O)CC(C)(CCc3ccc(O)cc3)OC2=O)c(C(C)(C)C)cc1OS(=O)(=O)N1CCN(C)CC1 (stereo unspecified) [5-tert-butyl-4-({4-hydroxy-6-[2-(4-hydroxyphenyl)ethyl]-6-methyl-2-oxo-5,6-dihydro-2H-pyran-3-yl}sulfanyl)-2-methylphenyl 4-methylpiperazine-1-sulfonate] | 7.1
Cc1cc(SC2C(=O)CC(CCc3ccc(O)cc3)(C3CCCCC3)OC2=O)c(C(C)(C)C)cc1OS(=O)(=O)N1CCN(C)CC1 (stereo unspecified) [5-tert-butyl-4-({6-cyclohexyl-4-hydroxy-6-[2-(4-hydroxyphenyl)ethyl]-2-oxo-5,6-dihydro-2H-pyran-3-yl}sulfanyl)-2-methylphenyl 4-methylpiperazine-1-sulfonate] | 9.7
CCCNS(=O)(=O)Oc1cc(C(C)(C)C)c(SC2C(=O)CC(CCc3ccc(O)cc3)(C(C)C)OC2=O)cc1C (stereo unspecified) [5-tert-butyl-4-({4-hydroxy-6-[2-(4-hydroxyphenyl)ethyl]-2-oxo-6-(propan-2-yl)-5,6-dihydro-2H-pyran-3-yl}sulfanyl)-2-methylphenyl N-propylsulfamate] | 3
Cc1cc(SC2C(=O)CC(CCc3ccc(N)cc3)(C(C)C)OC2=O)c(C(C)(C)C)cc1OS(=O)(=O)N1CCN(C)CC1 (stereo unspecified) [4-({6-[2-(4-aminophenyl)ethyl]-4-hydroxy-2-oxo-6-(propan-2-yl)-5,6-dihydro-2H-pyran-3-yl}sulfanyl)-5-tert-butyl-2-methylphenyl 4-methylpiperazine-1-sulfonate] | 1
Cc1cc(SC2C(=O)CC(CCc3ccc(O)cc3)(C3CCCCC3)OC2=O)c(C(C)(C)C)cc1OS(=O)(=O)N(C)C (stereo unspecified) [5-tert-butyl-4-({6-cyclohexyl-4-hydroxy-6-[2-(4-hydroxyphenyl)ethyl]-2-oxo-5,6-dihydro-2H-pyran-3-yl}sulfanyl)-2-methylphenyl N,N-dimethylsulfamate] | 20
CCNS(=O)(=O)Oc1cc(C(C)(C)C)c(SC2C(=O)CC(CCc3ccc(O)cc3)(C3CCCCC3)OC2=O)cc1C (stereo unspecified) [5-tert-butyl-4-({6-cyclohexyl-4-hydroxy-6-[2-(4-hydroxyphenyl)ethyl]-2-oxo-5,6-dihydro-2H-pyran-3-yl}sulfanyl)-2-methylphenyl N-ethylsulfamate] | 4.8
CNS(=O)(=O)Oc1cc(C(C)(C)C)c(SC2C(=O)CC(CCc3ccc(O)cc3)(C(C)C)OC2=O)cc1C (stereo unspecified) [5-tert-butyl-4-({4-hydroxy-6-[2-(4-hydroxyphenyl)ethyl]-2-oxo-6-(propan-2-yl)-5,6-dihydro-2H-pyran-3-yl}sulfanyl)-2-methylphenyl N-methylsulfamate] | 1.2
Cc1cc(SC2C(=O)CC(C)(CCc3ccc(O)cc3)OC2=O)c(C(C)(C)C)cc1OS(=O)(=O)N(C)C (stereo unspecified) [5-tert-butyl-4-({4-hydroxy-6-[2-(4-hydroxyphenyl)ethyl]-6-methyl-2-oxo-5,6-dihydro-2H-pyran-3-yl}sulfanyl)-2-methylphenyl N,N-dimethylsulfamate] | 1.6
Cc1cc(SC2C(=O)CC(CCc3ccc(N)cc3)(C(C)C)OC2=O)c(C(C)(C)C)cc1OS(=O)(=O)N(C)C (stereo unspecified) [4-({6-[2-(4-aminophenyl)ethyl]-4-hydroxy-2-oxo-6-(propan-2-yl)-5,6-dihydro-2H-pyran-3-yl}sulfanyl)-5-tert-butyl-2-methylphenyl N,N-dimethylsulfamate] | 3.9
CCCNS(=O)(=O)Oc1cc(C(C)(C)C)c(SC2C(=O)CC(C)(CCc3ccc(O)cc3)OC2=O)cc1C (stereo unspecified) [5-tert-butyl-4-({4-hydroxy-6-[2-(4-hydroxyphenyl)ethyl]-6-methyl-2-oxo-5,6-dihydro-2H-pyran-3-yl}sulfanyl)-2-methylphenyl N-propylsulfamate] | 6.2
